Structures are written as SMILES.

One assay addresses sGC α1/β1 heterodimer stably expressed in CHO-K1 cells (CHO-K1/sGC) (Homo sapiens (Human), UniProt Q02108+Q02153). The assay is described as follows: Cell-based sGC functional assay (Cyclic GMP Assay for sGC Activator: CASA assay). Particulars: CHO-K1, activity expressed as a percentage of compound A (standard), read-out: % Activation. An excerpt: Cell-based sGC Functional Assay (Cyclic GMP Assay for sGC Activator: CASA Assay)
Soluble guanylate cyclase (sGC) is a heme-containing enzyme that converts GTP to secondary messenger cGMP. Increases in cGMP levels affect several physiological processes including vasorelaxation through multiple downstream pathways. […] Heme-dependent activators (HDAs) preferentially activate sGC containing a ferrous heme group. To determine the effect of sGC activators on enzyme activity, the CASA assay was developed to monitor the generation of cGMP in a cell line that stably expresses the heterodimeric sGC protein.
Methods: A CHO-K1 cell line stably expressing the sGC α1/β1 heterodimer was generated using a standard transfection protocol. CHO-K1 cells were transfected with plasmids pIREShyghsGCα1 and pIRESneo-hsGCβ1 simultaneously using FUGENE reagent. Clones that stably express both subunits were selected with hygromycin and neomycin for ˜2 weeks. Clone #7 was chosen for the assay and was designated CHO-K1/sGC. CHO-K1/sGC cells were maintained in F-K12 medium containing 10% heat-inactivated Fetal Bovine Serum (FBS), 100 μg/mL penicillin/streptomycin, 0.5 mg/mL hygromycin and 0.25 mg/mL G418. The cells were then cryopreserved in LN2. On the day of the assay, the cells were thawed and resuspended in EBSS Assay Buffer (Sigma, E3024) supplemented with 5 mM MgCl2, 10 mM HEPES (4-(2-hydroxyethyl)piperazine-1-ethanesulfonic acid) and 0.05% BSA (bovine serum albumin) (EAB) and cell density was then adjusted to 2.25×10^5/mL with EAB. IBMX (3-isobutyl-1-methylxanthin, 0.5 mM) was added to inhibit degradation of cGMP. Compounds were diluted from DMSO stock solutions and added to the assay at a final DMSO concentration of 2.5%. Cells were pre-incubated in the presence and absence of 1 μM of Diethylenetriamine/nitric oxide adduct (DETA-NO; Sigma, 17018) for 30 min at 25° C. Compounds are subsequently added and incubated for 1 hr at 37° C. At the end of the incubation period, the reaction was terminated and the cells were lysed with the detection reagents from Cisbio Kits. The level of intracellular cGMP was determined using an HTRF-based assay kit (CisBio, 62GM2PEC), which detects the displacement of a fluorescence labeled cGMP from its specific antibody. The cGMP produced by test compounds was directly compared to the maximum cGMP production (this value was set to equal 100% activation.) of the published sGC-HDA compound A:
[drawing 491] (Example 1 in WO 2010/065275, published Jun. 10, 2010). The test compounds' activity were then expressed as a percentage of compound A, the standard in every experiment. This percent activation was calculated either in the presence or absence of DETA-NO which was then plotted. Inflection points (IP) and maximum fold induction was derived using Abase analysis software for 4P fit.
`CC1(N2CCC(CCC(=O)O)C2)C(=O)Nc2nc(-c3nn(Cc4ccccc4F)c4cc(Cl)ccc34)nc(N)c21` (single isomer, unassigned) [Example 261C, 3-[1-{4-Amino-2-[6-chloro-1-(2-fluorobenzyl)-1H-indazol-3-yl]-5-methyl-6-oxo-6,7-dihydro-5H-pyrrolo[2,3-d]pyrimidin-5-yl}pyrrolidin-3-yl]propanoic acid]: the Emax stood at 113%. Same read-out and setting: with `CC1(c2cccc(-c3nn[nH]n3)n2)C(=O)Nc2nc(-c3nn(Cc4ccccc4F)c4cc(Cl)ccc34)nc(N)c21` (single isomer, unassigned) [Example 253A, 5-[6-(2H-tetrazol-5-yl)pyridin-2-yl]-4-amino-2-[6-chloro-1-(2-fluorobenzyl)-1H-indazol-3-yl]-5-methyl-5,7-dihydro-6H-pyrrolo[2,3-d]pynmidin-6-one] the figure was 96.7%; with `CC1(c2ccc(CCS(=O)(=O)O)cc2)C(=O)Nc2nc(-c3nn(Cc4ccccc4F)c4cc(Cl)ccc34)nc(N)c21` (single isomer, unassigned) [Example 258B, 2-(4-{4-Amino-2-[6-chloro-1-(2-fluorobenzyl)-1H-indazol-3-yl]-5-methyl-6-oxo-6,7-dihydro-5H-pyrrolo[2,3-d]pyrimidin-5-yl}phenyl)ethanesulfonic acid], 98.2%; with `CC(C)(Cc1csc(C2(C3CC3)C(=O)Nc3nc(-c4nn(CCCC(F)(F)F)c5ncc(F)cc45)nc(N)c32)n1)C(=O)O` (stereo not drawn) [Example 96B, 3-(2-{4-amino-5-cyclopropyl-2-[5-fluoro-1-(4,4,4-trifluorobutyl)-1H-pyrazolo[3,4-b]pyridin-3-yl]-6-oxo-6,7-dihydro-5H-pyrrolo[2,3-d]pyrimidin-5-yl}thiazol-4-yl)-2,2-dimethylpropanoic acid], 54%. For the compound `CC1(c2ccc(CCc3nn[nH]n3)cn2)C(=O)Nc2nc(-c3nn(Cc4ccccc4F)c4ccccc34)nc(N)c21` (single isomer, unassigned) [Example 246A, 5-{5-[2-(2H-tetrazol-5-yl)ethyl]pyridin-2-yl}-4-amino-2-[1-(2-fluorobenzyl)-1H-indazol-3-yl]-5-methyl-5,7-dihydro-6H-pyrrolo[2,3-d]pyrimidin-6-one], the Emax is 95.3%. Still for that read-out and setting: with `CC1CCC(Cn2nc(-c3nc(N)c4c(n3)NC(=O)C4(C)c3nc(CC(C)(C)C(=O)O)co3)c3ccc(F)cc32)CC1` (racemic) [Example 137AA, 3-{2-[4-amino-2-{6-fluoro-1-[4-methylcyclohexylmethyl]-1H-indazol-3-yl}-5-methyl-6-oxo-6,7-dihydro-5H-pyrrolo[2,3-d]pyrimidin-5-yl]-1,3-oxazol-4-yl}-2,2-dimethylpropanoic acid] the figure was 92.1%; with `CC1(c2cccc(-c3nn[nH]n3)c2)C(=O)Nc2nc(-c3nn(CCC(F)(F)C(F)(F)F)c4ncccc34)nc(N)c21` (single isomer, unassigned) [Example 252B, 4-amino-5-methyl-2-[1-(3,3,4,4,4-pentafluorobutyl)-1H-pyrazolo[3,4-b]pyridin-3-yl]-5-[3-(2H-tetrazol-5-yl)phenyl]-5,7-dihydro-6H-pyrrolo[2,3-d]pyrimidin-6-one], 87.6%; with `CC(C)(Cc1coc(C2(C)C(=O)Nc3nc(-c4nn(CC5CCCCO5)c5ccccc45)nc(N)c32)n1)C(=O)O` (single isomer, unassigned) [Example 230AA, 3-{2-[4-amino-5-methyl-6-oxo-2-{1-[tetrahydro-2H-pyran-2-ylmethyl]-1H-indazol-3-yl}-6,7-dihydro-5H-pyrrolo[2,3-d]pyrimidin-5-yl]-1,3-oxazol-4-yl}-2,2-dimethylpropanoic acid], 99.1%. The same measure, in the same setting: with `CC1(c2nn(C(C)(C)C(=O)O)c(=O)o2)C(=O)Nc2nc(-c3nn(CCC(F)(F)C(F)(F)F)c4cc(Cl)ccc34)nc(N)c21` (single isomer, unassigned) [Example 99B, 2-[5-{4-Amino-2-[6-chloro-1-(3,3,4,4,4-pentafluorobutyl)-1H-indazol-3-yl]-5-methyl-6-oxo-6,7-dihydro-5H-pyrrolo[2,3-d]pyrimidin-5-yl}-2-oxo-1,3,4-oxadiazol-3(2H)-yl]-2-methylpropanoic acid] the figure was 110%; with `CC(C)(Cn1cc(C2(C)C(=O)Nc3nc(-c4nn(Cc5ccccc5F)c5cc(Cl)ccc45)nc(N)c32)nn1)C(=O)O` (single isomer, unassigned) [Example 140A, 3-(4-{4-Amino-2-[6-chloro-1-(2-fluorobenzyl)-1H-indazol-3-yl]-5-methyl-6-oxo-6,7-dihydro-5H-pyrrolo[2,3-d]pyrimidin-5-yl}-1H-1,2,3-triazol-1-yl)-2,2-dimethylpropanoic acid], 99%; with `CC1(c2cn(C(C)(C)C(=O)O)nn2)C(=O)Nc2nc(-c3nn(Cc4ccccc4F)c4cc(Cl)ccc34)nc(N)c21` (single isomer, unassigned) [Example 141A, 2-(4-{4-Amino-2-[6-chloro-1-(2-fluorobenzyl)-1H-indazol-3-yl]-5-methyl-6-oxo-6,7-dihydro-5H-pyrrolo[2,3-d]pyrimidin-5-yl}-1H-1,2,3-triazol-1-yl)-2-methylpropanoic acid], 98.7%.

Regarding `CC1(c2ccc(CCc3nn[nH]n3)cn2)C(=O)Nc2nc(-c3nn(Cc4ccccc4F)c4cc(Cl)ccc34)nc(N)c21` (single isomer, unassigned) [Example 247A, 5-{5-[2-(2H-tetrazol-5-yl)ethyl]pyridin-2-yl}-4-amino-2-[6-chloro-1-(2-fluorobenzyl)-1H-indazol-3-yl]-5-methyl-5,7-dihydro-6H-pyrrolo[2,3-d]pyrimidin-6-one], the Emax is 86.9%.

The same assay, now with this note: activity expressed as a percentage of compound A (standard).
For the compound `C[C@@]1(c2ccc(CCc3noc(=O)[nH]3)cc2)C(=O)Nc2nc(-c3nn(Cc4ccccc4F)c4cc(Cl)ccc34)nc(N)c21` [Example 256B, (S)-4-Amino-2-[6-chloro-1-(2-fluorobenzyl)-1H-indazol-3-yl]-5-methyl-5-{4-[2-(5-oxo-4,5-dihydro-1,2,4-oxadiazol-3-yl)ethyl]phenyl}-5,7-dihydro-6H-pyrrolo[2,3-d]pyrimidin-6-one], the “% Activation” value is given as 104.4%.

The same assay, now with this note: inflection point (IP) from 4P fit of percent activation.
What is called EC50 is the midpoint of the concentration-response curve. Higher therefore signals a need for much substance. `CC(C)(Cc1csc(C2(C3CC3)C(=O)Nc3nc(-c4nn(CCCC(F)(F)F)c5ncc(F)cc45)nc(N)c32)n1)C(=O)O` (stereo not drawn) [Example 96B, 3-(2-{4-amino-5-cyclopropyl-2-[5-fluoro-1-(4,4,4-trifluorobutyl)-1H-pyrazolo[3,4-b]pyridin-3-yl]-6-oxo-6,7-dihydro-5H-pyrrolo[2,3-d]pyrimidin-5-yl}thiazol-4-yl)-2,2-dimethylpropanoic acid] registered an EC50 of 311 nM. In other words, the sub-micromolar range.

A further assay has as its target human recombinant sGC enzyme (Homo sapiens (Human), UniProt Q02108+Q02153). As to the kind of experiment: Size Exclusion Chromatography (SEC) competition binding assay using [3H] Ex-77B as the radioligand. As to conditions: [3H] Ex-77B radioligand, 24 hours at 37° C., 300 μM DETA/NO. The protocol: Binding Assay: The binding potencies of sGC compounds to the human recombinant sGC enzyme were determined in a Size Exclusion Chromatography (SEC) competition binding assay using [^3H] Ex-77B as the radioligand. [^3H] […] The parent (non-labeled) molecule was first iodinated then a Pd-catalyzed iodine to tritium exchange provided the labeled compound. […] Assays were conducted in 96-well plates in a total volume of 200 μL. […] Non-specific binding was defined by competition with 1 μM of Ex-77B. After the incubation period, the binding mixtures were loaded onto the gel-filtration plate (ThermoFischer Cat. No. 89808) pre-equilibrated with binding buffer and spun at 1000×g for 3 min at 4° C. on a Bench top centrifuge. The collected eluates in White Frame Clear Well Isoplates (Perkin Elmer Cat #6005040) received 100 μl of UltimaGold scintillation cocktail. The sealed plates were shaken vigorously and span, and counted after 6 hours with a Wallac Microbeta TriLux 1450 LSC & Luminescence Counter (Perkin Elmer).
Usually Ki stands for the equilibrium dissociation constant of an inhibitor or competing ligand from its target. In the case of `CC(C)(Cc1csc(C2(C3CC3)C(=O)Nc3nc(-c4nn(CCCC(F)(F)F)c5ncc(F)cc45)nc(N)c32)n1)C(=O)O` (stereo not drawn) [Example 96B, 3-(2-{4-amino-5-cyclopropyl-2-[5-fluoro-1-(4,4,4-trifluorobutyl)-1H-pyrazolo[3,4-b]pyridin-3-yl]-6-oxo-6,7-dihydro-5H-pyrrolo[2,3-d]pyrimidin-5-yl}thiazol-4-yl)-2,2-dimethylpropanoic acid], the Ki was 12.2 nM.
